Measured values reported in patent US10111882B2, “SYK inhibitors” (Gilead Sciences, Inc., priority 2016, dated 2018).
“And” between values parts separate entries of the source, which are not always exact repeats. Identical values can stand only once.

How the values were obtained:
[1] = clinical; Nijjar J. S., et al., Rheumatology 2013; cited from earlier work
[2] = system: patients with previously untreated AML; experiment: Phase 1b/2 study (NCT02343939): tolerability, dose limiting toxicity and adverse events
From the text: (§1) Patients with residual disease two weeks after chemotherapy received a second induction cycle identical to the first.

[3] = system: patients with previously untreated AML; experiment: Phase 1b/2 study (NCT02343939): response (complete remission) to entospletinib monotherapy lead-in followed by daunorubicin/cytarabine induction; format: in vivo, human
From the text: as §1

[4] = system: patients with previously untreated AML; experiment: Phase 1b/2 study (NCT02343939): platelet counts and platelet transfusions (FIG. 2, FIG. 3); format: in vivo, human; conditions: for mean number of platelet transfusions required per subject: across monotherapy lead-in and induction cycles; for mean number of transfusions required per subject: induction treatment
From the text: as §1

[5] = system: patients with previously untreated AML; experiment: Phase 1b/2 study (NCT02343939): absolute neutrophil counts / neutrophil recovery (FIG. 1)
From the text: as §1

SMILES: COc1cc(Nc2ncc(F)c(Nc3ccc4c(n3)N(COP(=O)(O)O)C(=O)C(C)(C)O4)n2)cc(OC)c1OC [Fostamatinib]
- adverse side effects [1]: hypertension, neutropenia and transaminitis

SMILES: c1cn2cc(-c3ccc4cn[nH]c4c3)nc(Nc3ccc(N4CCOCC4)cc3)c2n1 [entospletinib]
- dose limiting toxicity (DLT) ([2]; 200 mg BID po, three patients): no DLT was observed
- dose limiting toxicity (DLT) ([2]; 400 mg BID po, 3 additional patients (DL 1 expansion)): none of whom experienced DLT
- adverse event possibly related to entospletinib ([2]; 400 mg BID po, one of three patients (documented fungal pneumonia), did not meet DLT criteria): grade 3 pneumonitis
- tolerability of single-agent entospletinib ([2]; monotherapy window period (up to 14 days), before chemotherapy): well tolerated
- most common non hematologic adverse events ([2]; overall, inclusive of intensive chemotherapy periods (daunorubicin + cytarabine)): febrile neutropenia, nausea, and diarrhea
- patients requiring a second induction ([3]; 200 mg BID, 3 patients): two required a second induction
- patients requiring a second induction ([3]; 400 mg BID, 6 patients): none required a second induction
- response after the 14 day entospletinib monotherapy window ([3]; person with 11q23-rearranged AML, prior to chemotherapy): morphologic and cytogenetic CR
- platelet transfusions during monotherapy window ([4]; 200 mg dose level): One subject received platelet transfusions
- platelet transfusions during monotherapy window ([4]; 400 mg dose level): no transfusions were required
- mean number of platelet transfusions required per subject ([4]; 200 mg dose level): 8.7
- mean number of platelet transfusions required per subject ([4]; 400 mg dose level): 4.1
- mean number of platelet transfusions required per subject ([4]; overall (both dose levels)): 5.5
- platelet response during the window period ([4]; another patient with 11q23-rearranged AML, monotherapy window): significant platelet response
- mean number of transfusions required per subject ([4]; Cycle 1 (with daunorubicin/cytarabine)): 4.1
- mean number of transfusions required per subject ([4]; Cycle 2 (with daunorubicin/cytarabine)): 5.5
- platelet count ([4]; two week entospletinib monotherapy window): remained stable, or in some cases, improved from baseline
- recovery time from severe neutropenia ([5]; 200 mg dose level, only evaluable subject with severe neutropenia at baseline): 66 days
- ANC recovered to during treatment ([5]; 400 mg dose level, all three evaluable subjects under severe neutropenia cutoff of 200/μL ANC at baseline): above 200 /μL
- individual time to recovery from severe neutropenia ([5]; 400 mg dose level, individual subjects with severe neutropenia at baseline): 8 days (2×) and 14 days
- subjects experiencing severe neutropenia during monotherapy lead-in ([5]; 400 mg dose level, subjects without severe neutropenia at baseline, recovered to above 200/μL by end of first induction cycle): two of the five subjects
- median (Q1, Q3) time to recovery from severe neutropenia ([5]; 400 mg dose level, three subjects with severe neutropenia at baseline): 8 (8, 14) days
- absolute neutrophil counts (ANC) ([5]; entospletinib monotherapy lead-in period): remained largely stable
- severe neutropenia during induction treatment ([5]; five subjects (both dose levels) without severe neutropenia at baseline): none experienced severe neutropenia
